Test results: patent US20030181377A1, “Inhibition of VEGF receptor signaling reverses tumor resistance to radiotherapy” (Vanderbilt University, priority 2002, published 2003)

B1: ExFlk.6His: soluble extracellular component of Flk-1 tagged with 6 histidine residues (protein, UniProt P35918 20-762, looked up)
extracellular domain: ASVGLPGDFLHPPKLSTQKDILTILANTTLQITCRGQRDLDWLWPNAQRDSEERVLVTECGGGDSIFCKTLTIPRVVGNDTGAYKCSYRDVDIASTVYVYVRDYRSPFIASVSDQHGIVYITENKNKTVVIPCRGSISNLNVSLCARYPEKRFVPDGNRISWDSEIGFTLPSYMISYAGMVFCEAKINDETYQSIMYIVVVVGYRIYDVILSPPHEIELSAGEKLVLNCTARTELNVGLDFTWHSPPSKSHHKKIVNRDVKPFPGTVAKMFLSTLTIESVTKSDQGEYTCVASSGRMIKRNRTFVRVHTKPFIAFGSGMKSLVEATVGSQVRIPVKYLSYPAPDIKWYRNGRPIESNYTMIVGDELTIMEVTERDAGNYTVILTNPISMEKQSHMVSLVVNVPPQIGEKALISPMDSYQYGTMQTLTCTVYANPPLHHIQWYWQLEEACSYRPGQTSPYACKEWRHVEDFQGGNKIEVTKNQYALIEGKNKTVSTLVIQAANVSALYKCEAINKAGRGERVISFHVIRGPEITVQPAAQPTEQESVSLLCTADRNTFENLTWYKLGSQATSVHMGESLTPVCKNLDALWKLNGTMFSNSTNDILIVAFQNASLQDQGDYVCSAQDKKTKKRHCLVKQLIILERMAPMITGNLENQTTTIGETIEVTCPASGNPTPHITWFKDNETLVEDSGIVLRDGNRNLTIRRVRKEDGGLYTCQACNVLGCARAETLFIIEGAQEKTNLE
modifications: extracellular domain His6 tag

Assays:
[1] = test system: GL261 and B16F0 tumor blood vessels; test: Tumor vascular window model (vascular length density); assay type: in vivo, C57BL6 mice
Description: Penicillin/streptomycin solution (200 μl; available from GIBCO™ Invitrogen Corporation, Carlsbad, Calif., United States of America) was injected into the hind limb of the mouse prior to preparation of the window chamber. The dorsal ventral window chamber was prepared using a 3-gram plastic frame, which was applied to the skin of a test animal and remained attached for the duration of the study. Briefly, the chamber was screwed together, and the epidermis was cut and left open with a plastic covering.
To prepare a test animal for application of the plastic frame, the dorsal midline was found along the animal's back, and a clip was placed to hold the skin in position. […]
GL261 and B16F0 cells were implanted into the dorsal skin fold window chamber. […] Scanned slides were analyzed using OPTIMAS® image analysis software (Bioscan, Inc., Edmonds, Wash., United States of America; available from Media Cybernetics, Silver Spring, Md., United States of America) or IMAGE-PRO® software (Media Cybernetics, Silver Spring, Md., United States of America) as described below.
Vascular center lines were positioned by OPTIMAS® software or IMAGE-PRO® software and verified by an observer blinded to the treatment groups. Tumor blood vessels were quantified using OPTIMAS® software, which quantified the vascular length density of blood vessel within the microscopic field. […]

[2] = test system: GL261 and B16F0 tumor blood flow; test: Power Doppler sonography of tumor blood flow; assay type: in vivo, C57BL6 mice
Text: Power Doppler sonography was used to study the response of tumor blood vessels to ionizing radiation. This method utilizes amplitude to measure flow in microvasculature. Tumors were imaged with a 10-5 MHz ENTOS® linear probe (Advanced Technology Laboratories, Inc., Bothell, Wash., United States of America) attached to an HDI® 5000 diagnostic ultrasound system (Advanced Technology Laboratories, Inc., Bothell, Wash., United States of America).
Power Doppler sonography images were obtained with the power gain set to 82%. Care was taken to minimize motion artifact. A 20-frame cineloop sweep of the entire tumor was obtained with the probe perpendicular to the long axis of the lower extremity along the entire length of the tumor.
The images were analyzed using HDI® software (Advanced Technology Laboratories, Inc., Bothell, Wash., United States of America). This software allows direct evaluation of Power Doppler cineloop raw data. Color area was recorded for the entire tumor. […]
To determine whether inhibition of Flk-1-mediated signal transduction also enhances the cytotoxic effects of radiotherapy in established tumors, Power Doppler sonography was used to quantify blood flow in 1 cm diameter tumors treated with Flk-1 inhibitors and ionizing radiation. […] Blood flow was quantified by Power Doppler sonography on days 4 and 7 according to methods described in Example 3.

[3] = test system: HUVEC; test: Radiation-induced apoptosis in endothelial cells (HUVEC); assay type: cell-based, human
Description: FIG. 5 is a bar graph depicting an increased percentage of endothelial cells undergoing apoptosis in response to VEGF-R2 inhibition followed by radiotherapy. […] Cells were treated. with 6 Gy of radiation and stained 24 hours later. The percentage of cells undergoing apoptosis was determined for each of the treatment groups as described in Example 6. The mean percentage of apoptotic cells and the standard error of the mean were determined using 4 culture plates in each treatment group.
To determine whether Flk-1 inhibitors enhance radiation-induced intrinsic cell death mechanisms, radiation-induced apoptosis in HUVEC human primary culture endothelial cells, 3B11 murine endothelial cells, and human microdermal endothelial cells (HMEC) was studied following Flk-1 inhibition. […] Cells were then treated with 6 Gy of ionizing radiation. Cultures were stained to reveal apoptotic cells 24 hours later. Endothelial cell death was quantified by counting the number of apoptotic bodies in 100 cells.

[4] = test system: GL261 tumors; test: Tumor volume assessment / growth delay; assay type: in vivo, C57BL6 mice
Description: GL261 tumors were generated by subcutaneous injection of 10^6 viable GL261 cells suspended in 0.2 ml of a 0.6% agarose solution into the right thigh of C57BL6 mice. […] An equal number of large and intermediate size tumors were present in each group. […] Control mice received identical doses and schedule of either SU5416 alone or radiation alone. Twice each week, tumor volumes were measured using skin calipers as previously described by […] et al., 1998; […] et al., 1995; and Staba et al., 1998. Tumor volumes were calculated using a formula: a×b×c/2, where a=maximal width dimension, b=maximal length dimension, and c=maximal depth dimension, which was derived from the formula for an ellipsoid (πd^3/6). Data were calculated as the percent of original (day 0) tumor volume and graphed as fractional tumor volume ±1 standard deviation for each treatment group. Variance was analyzed by the Kruskal-Wallis method (Kruskal & Wallis, 1952). Growth delay was determined as the number of days required for a tumor to reach a predetermined volume, for example three-fold the original volume, or a volume of 1 cm^3. […] In a second experiment, mice were randomly assigned to each of the four treatment groups for a total of 10 mice in each group. […] Flk-1 inhibition and radiation treatments were initiated fourteen days after the tumor cells had been injected and were performed as described herein above.

[5] = test system: tumor blood flow (B16F0, LLC, GL261, D54 tumors); test: Restoration of tumor blood flow after radiotherapy (Doppler); assay type: in vivo, mice; conditions: SU5416 in combination with radiation, measured daily for 7 days; radiation-only controls restored flow by day 7
Text: FIG. 7 is a bar graph depicting inhibition of tumor revascularization via administration of a VEGF-R2 inhibitor. Doppler analysis of blood flow in four tumor types is shown on 3, 5, and 7 days following radiation treatment. Animals received radiation treatment alone (control) or in combination with SU5416. In control animals, tumor revascularization occurs within 7 days following radiation treatment. Tumor revascularization is repressed in animals receiving SU5416 in combination with radiation treatment. Open bars, B16F0 tumors; solid bars, LLC tumors; stippled bars, GL261 tumors; hatched bars, D54 tumors.
Tumor-bearing mice were generated as described in Example 1. […] Control animals were treated with radiation alone. Doppler analysis of tumor blood flow was measured daily for 7 days using the methods described in Example 3. In control animals receiving only radiation treatment, restoration of tumor blood flow was observed by day 7.

[6] = test system: EPCs in GI261 gliomas; test: Endothelial progenitor cell (EPC) infiltration of irradiated tumor; assay type: in vivo, mice; conditions: SU5416 and radiation; tumor sections on days 1, 4 and 7
Description: EPCs were isolated from peripheral circulation, fixed with paraformaldehyde, and incubated with antibodies that specifically bind to Flk or to CD31. A fluorescently-labeled secondary antibody was used to detect Flk and CD31 (PECAM; platelet-endothelial cell adhesion molecule 1) proteins on the surface of EPCs.
Mice bearing GI261 gliomas, generated as described in Example 1, received radiation […] treatment of the tumor. EPCs were isolated from peripheral circulation and fluorescently labeled with Dil (1,1′-dioctadecyl-3,3,3′,3′-tetramethylindocarbocyanine perchlorate; available from Molecular Probes, Inc., Eugene, Oreg., United States of America). Labeled EPCs were then administered via tail vein injection to tumor-bearing mice immediately following tumor irradiation. Tumor sections were obtained on days 1, 4, and 7 following irradiation. In control mice, EPCs were detected in the perivascular space at day 4, and then proliferated and migrated into to the tumor by day 7.

[7] = in vivo; cited from earlier work
[8] = test system: Flk-1; conditions: Lin et al., 1998; cited from earlier work
[9] = test system: HUVEC; conditions: Lin et al., 1998; cited from earlier work

Molecule | time to complete destruction of tumor blood vessels ([1]; 0.75 mg administered 1 hour prior to 2 Gy, p=0.02 vs radiation alone) [h] | regression of tumor blood vessels, SU5416 alone ([1]; 0.75 mg, absence of ionizing radiation) | reduction in tumor blood flow, SU5416 plus radiation ([2]; 0.75 mg intraperitoneal 1 hour prior to irradiation, 3 Gy per day for 7 days, p=0.004 vs either treatment alone) | reduction in tumor blood flow, SU5416 alone ([2]; 0.75 mg intraperitoneal, 3 doses, no radiation, 1 cm GL261 and B16F0 tumors, days 4 and 7) | percentage of apoptotic cells, with radiation ([3]; 50 μM SU5416 or 10^8 pfu Ad.ExFlk plus 6 Gy, stained 24 hours later) [%] | percentage of cells undergoing apoptosis, no radiation ([3]; 50 μM SU5416 or 10^8 pfu Ad.ExFlk, not exposed to ionizing radiation) [%] | tumor growth delay, SU5416 alone ([4]; 0.75 mg intraperitoneal on days 0, 4, 7 and 11, first experiment) | tumor volume, SU5416 followed by radiation ([4]; first experiment (FIG. 6A), 0.75 mg i.p. ×4 plus 3 Gy ×8, p=0.01 vs radiation alone, p<0.009 vs SU5416 alone) | tumor volume, SU5416 and radiation ([4]; second experiment (FIG. 6B), 10 mice per group, p=0.01 vs radiation alone, p=0.006 vs SU5416 alone) | tumor blood flow after radiation treatment [5] | extravasation of EPCs into the tumor [6] | plasma half-life [7] [h] | activation of Flk-1 [8] | VEGF-induced DNA synthesis and migration in HUVEC [9]
Cc1cc(C)c(/C=C2\C(=O)Nc3ccccc32)[nH]1 [SU5416] | ≤ 24 | minimal regression of the tumor blood vessels and rapid restoration of vasculature | significant reduction in tumor blood flow | minimal reduction | 14 | 4 | No growth delay | significantly reduced tumor volumes | significantly reduced tumor volumes | tumor blood flow was repressed | extravasation of EPCs into the tumor was prevented | 1 to 2 | – | –
B1 | – | – | – | – | – | – | – | – | – | – | – | – | blocks activation of Flk-1 | inhibits
